Each structure is given as a SMILES string.

A short description of one data set: physchem. To be noted: buffer. As for the experimental part:
Table S1. Sulfonyl fluoride warhead stability for VHL-SF1 and VHL-SF2 was determined in
(1 picture or pasted object on this page, not shown here)

Data set [1] addresses T1, VCB and FAM-conjugated HIF1α-derived peptide interaction (Homo sapiens, UniProt P40337).
T1 construct: human VHL (UniPort entry P40337, residues 1 -213); 6xHis followed by TEV site (N, cleaved yes); made in house; host or cells: E. coli One Shot BL21(DE3)
In words: Competitive fluorescence polarization (FP) assay, VCB / FAM-conjugated HIF1α-derived peptide. Format: binding. As to conditions: concentrations up to 100 μM, 2 h pre-incubation with VCB. The method, then: We next focused on developing a second generation covalent VHL binder with enhanced potency and occupancy.
Figure 2 (A) Structure of VHL-SF2. […] (E) Competition pull-down assay from live cells between VHL-SF2-Biotin and VHL-SF2. HEK293T cells were pretreated with DMSO or varying concentrations of VHL-SF2 for 2 h at 37 °C. The cells were lysed and treated with DMSO or VHL-SF2-Biotin (50 μM) for 2 h at room temperature. A pull-down with streptavidin beads was conducted, after which the protein was resolved on SDS/PAGE. VHL and loading control GAPDH levels were visualized by Western blotting.
Figure S3. (A) Gel-based VHL labelling of VHL-SF1-Biotin, and (B) VHL-SF2-Biotin. VCB protein was pre-treated with DMSO, VHL-SF1-Biotin or VHL-SF2-Biotin for 2 h at room temperature, after which protein was resolved on SDS -PAGE and visualised by Neutravidin […]
Figure S4. Dose-response of VHL-SF1 following a 2 h pre-incubation in the presence of VCB and FAM-conjugated HIF1α-derived peptide, assessed by fluorescence polarization. Data […]
Figure S5. (A) VCB was incubated with DMSO for 24 h and subjected to intact-protein LC-MS (VHL: 24784 Da). […]
Fluorescence polarization assay protocol […]
well plate and the plate was shaken for 1 min, before reading fluorescence polarization on a Perkin Elmer Envision 2101 plate reader (excitation 486 nm, emission 535 nm). […]
A general note: Fluorescence polarisation rises when a labelled molecule tumbles more slowly, as on binding a larger partner.

The target in data set [2] is T2, recombinant human VCB (VHL protein with elongin C and elongin B) (Homo sapiens, UniProt P40337).
T2 construct: human VHL (UniPort entry P40337, residues 1 -213); 6xHis followed by TEV site (N, cleaved yes); made in house; host or cells: E. coli One Shot BL21(DE3)
Description: Gel-based streptavidin shift assay (anti-VHL Western blot). As to conditions: 10 μM probe, 2 h incubation at room temperature. Format: binding. The method, then:
To assess the ability of VHL-SF1 to covalently modify VHL, we initially developed a streptavidin shift assay in which we exposed recombinant human VCB, a stable complex of VHL protein with elongin C and elongin B, to VHL-SF1-Biotin. VHL biotinylation could then be directly quantified by the apparent shift in molecular weight observed when the sample was mixed with streptavidin and analyzed by an anti-VHL Western blot (Figure S2).[20] Through this assay, we concluded that 10 μM VHL-SF1-Biotin modified 32% VHL following 2 h of incubation at room temperature, which was further confirmed to be concentration-dependent with respect to the probe (Figure S3).
Figure S2. (A) Structure of VHL-SF-1-Biotin. (B) Structure of VHL-SF-2-Biotin. (C - E) Gel-based streptavidin shift assay of VHL-SF1-Biotin, and VHL-SF2-Biotin. VCB protein was pre-treated with DMSO, VHL-SF1-Biotin (10 μM) or VHL-SF2-Biotin (10 μM) for 2 h at room temperature prior to addition of streptavidin (10 μM, 10 min) at room temperature, after which protein was resolved on SDS-PAGE and visualised by VHL western blotting. (F) Quantification of VHL levels from western blot.
Docking analysis with Molecular Operating Environment (MOE)
Molecular modelling studies were conducted using the software Molecular Operating Environment 2019.01. […]
A general note: Immunoblotting shows a protein as a band on a membrane.

The term half-life denotes how long it takes for the measured level to halve. A lower half-life goes with rapid decline. As for `CC(=O)N[C@H](C(=O)N1C[C@H](S(=O)(=O)F)C[C@H]1C(=O)NCc1ccc(-c2scnc2C)cc1)C(C)(C)C` [VHL-SF1, (3R,5S)-1-((S)-2-Acetamido-3,3-dimethylbutanoyl)-5-((4-(4-methylthiazol-5-yl)benzyl)carbamoyl)-pyrrolidine-3-sulfonyl fluoride], the half-life is 15 h in the data set “physchem” (pH 6) and 0.55 h in the data set “physchem” (pH 7.5). For the same compound, the “displacement of fluorophore-labeled HIF1α peptide” value in data set [1] is given as “unable to displace”.
For `Cc1cc([C@H](C(=O)N2C[C@H](S(=O)(=O)F)C[C@H]2C(=O)N[C@@H](CC(=O)NCCOCCOCCOCCNC(=O)CCCC[C@H]2SC[C@@H]3NC(=O)N[C@@H]32)c2ccc(-c3scnc3C)cc2)C(C)C)on1` [VHL-SF2-Biotin, (3R,5S)-1-((R)-3-Methyl-2-(3-methylisoxazol-5-yl)butanoyl)-5-(((S)-1-(4-(4-methylthiazol-5-yl)phenyl)-3,17-dioxo-21-((3aS,4R,6aR)-2-oxohexahydro-1H-thieno[3,4-d]imidazole-4-yl)-7,10,13-trioxa-4,16-diazahenicosyl)carbamoyl)pyrrolidine-3-sulfonyl fluoride], the “VHL modified (VHL biotinylation, streptavidin shift)” value in data set [2] is 44%.

Values taken from article PMC10982999, “Structure-Guided Design and Optimization of Covalent VHL-Targeted Sulfonyl Fluoride PROTACs” (Journal of Medicinal Chemistry, 2024).
